We go through eight substances from patent US5556744A, “Methods and compositions for diagnosing and treating certain HIV infected patients” (The Trustees of the University of Pennsylvania, priority 1994, dated 1996).

Test [1] relates to sera samples (antibodies). Put plainly: ELISA peptide-binding of maternal sera, MN strain peptides (Example 7). Also noted: species or system human. The note with it: for Correlation of peptide binding with non-transmission (in words): Example 7; for % Bound, Non-Transmitter / No. of Sera Samples Bound, Non-Transmitter / % Bound, Transmitter / No. of Sera Samples Bound, Transmitter: n = 5. The method, then:
This example provides additional sera screens using peptides corresponding to sequences of the MN strain. The sera samples (5 transmitters and 5 non-transmitters) were obtained from the NIH and differ from those screened in the previous studies. Peptide binding was analyzed by ELISA as described in Example 3.
On the technique in general: In an ELISA, binding on a coated surface is turned into a signal by an enzyme label.

The test system of test [2] is maternal HIV+ sera (antibodies). Description: RIA / ELISA binding of maternal HIV+ sera to gp120 and gp41 peptides (Example 3). Also noted: species or system human. An outline of the steps: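 Peptides were coated at 10 μg/ml in carbonate buffer pH 9.6 and blocked with 1% BSA. Sera at 1:50 and 1:500 were incubated overnight at 4°C and detected with ¹²⁵I anti-human IgG (RIA) or HRP/TMB at OD450 (ELISA). Specific binding was taken as peptide minus no-peptide wells, scored as a ratio to normal human serum.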

On to HMLQLTVWGIKQLQAR [MN-15], for which, in test [1], the “Correlation of peptide binding with non-transmission (in words)” value was “selectively correlate with non-transmission”; the “% Bound, Non-Transmitter” value was found to be 60%; the “No. of Sera Samples Bound, Non-Transmitter” value came out at 3; the “% Bound, Transmitter” value was 0%. Moreover, the “No. of Sera Samples Bound, Transmitter” value in test [1] is given as 0.

Consider LRIVFAVLSVVNRVRQGYSP [Peptide 55], for which the “Binding of maternal HIV+ serum to peptide (sera/NHS ratio)” value (shortened to “Binding … (sera/NHS ratio)”) in test [2] (Serum No. 1, Non-Transmission Group) was “- (specific OD450 or cpm of sera sample binding to peptide divided by the specific OD450 or cpm of NHS sample binding to peptide, which value is less than 2)”; in test [2] (Serum No. 2, Non-Transmission Group), “- (specific OD450 or cpm of sera sample binding to peptide divided by the specific OD450 or cpm of NHS sample binding to peptide, which value is less than 2)”; in test [2] (Serum No. 3, Non-Transmission Group) it was “- (specific OD450 or cpm of sera sample binding to peptide divided by the specific OD450 or cpm of NHS sample binding to peptide, which value is less than 2)”; in test [2] (Serum No. 4, Transmission Group) it was “- (specific OD450 or cpm of sera sample binding to peptide divided by the specific OD450 or cpm of NHS sample binding to peptide, which value is less than 2)”; in test [2] (Serum No. 5, Transmission Group), “- (specific OD450 or cpm of sera sample binding to peptide divided by the specific OD450 or cpm of NHS sample binding to peptide, which value is less than 2)”; in test [2] (Serum No. 6, Non-Transmission Group), “- (specific OD450 or cpm of sera sample binding to peptide divided by the specific OD450 or cpm of NHS sample binding to peptide, which value is less than 2)”. Besides, the “Binding … (sera/NHS ratio)” value is recorded as “- (specific OD450 or cpm of sera sample binding to peptide divided by the specific OD450 or cpm of NHS sample binding to peptide, which value is less than 2)” in test [2] (Serum No. 7, Non-Transmission Group); “- (specific OD450 or cpm of sera sample binding to peptide divided by the specific OD450 or cpm of NHS sample binding to peptide, which value is less than 2)” in test [2] (Serum No. 8, Non-Transmission Group); “- (specific OD450 or cpm of sera sample binding to peptide divided by the specific OD450 or cpm of NHS sample binding to peptide, which value is less than 2)” in test [2] (Serum No. 9, Non-Transmission Group); “- (specific OD450 or cpm of sera sample binding to peptide divided by the specific OD450 or cpm of NHS sample binding to peptide, which value is less than 2)” in test [2] (Serum No. 10, Transmission Group); “- (specific OD450 or cpm of sera sample binding to peptide divided by the specific OD450 or cpm of NHS sample binding to peptide, which value is less than 2)” in test [2] (Serum No. 11, Non-Transmission Group); “- (specific OD450 or cpm of sera sample binding to peptide divided by the specific OD450 or cpm of NHS sample binding to peptide, which value is less than 2)” in test [2] (Serum No. 12, Non-Transmission Group). Further, the “Binding … (sera/NHS ratio)” value is recorded as “- (specific OD450 or cpm of sera sample binding to peptide divided by the specific OD450 or cpm of NHS sample binding to peptide, which value is less than 2)” in test [2] (Serum No. 13, Transmission Group); “- (specific OD450 or cpm of sera sample binding to peptide divided by the specific OD450 or cpm of NHS sample binding to peptide, which value is less than 2)” in test [2] (Serum No. 14, Transmission Group); “- (specific OD450 or cpm of sera sample binding to peptide divided by the specific OD450 or cpm of NHS sample binding to peptide, which value is less than 2)” in test [2] (Serum No. 15, Transmission Group); “- (specific OD450 or cpm of sera sample binding to peptide divided by the specific OD450 or cpm of NHS sample binding to peptide, which value is less than 2)” in test [2] (Serum No. 16, Non-Transmission Group); “- (specific OD450 or cpm of sera sample binding to peptide divided by the specific OD450 or cpm of NHS sample binding to peptide, which value is less than 2)” in test [2] (Serum No. 17, Non-Transmission Group); “- (specific OD450 or cpm of sera sample binding to peptide divided by the specific OD450 or cpm of NHS sample binding to peptide, which value is less than 2)” in test [2] (Serum No. 18, Non-Transmission Group). Besides, the “Binding … (sera/NHS ratio)” value in test [2] (Serum No. 19, Transmission Group) is “- (specific OD450 or cpm of sera sample binding to peptide divided by the specific OD450 or cpm of NHS sample binding to peptide, which value is less than 2)”; in test [2] (Serum No. 20, Non-Transmission Group), “- (specific OD450 or cpm of sera sample binding to peptide divided by the specific OD450 or cpm of NHS sample binding to peptide, which value is less than 2)”. For the same substance, the “% Bound, Non-Transmitter” value in test [1] turned out to be 0%. Further, the “No. of Sera Samples Bound, Non-Transmitter” value in test [1] was found to be 0. The “% Bound, Transmitter” value in test [1] came to 0%. Moreover, the “No. of Sera Samples Bound, Transmitter” value in test [1] was 0.

With “MN-10: gp41 peptide, amino acids 716-730, HIV strain MN, SEQ ID NO: 158”, in test [1], the “% Bound, Non-Transmitter” value is given as 20%; the “No. of Sera Samples Bound, Non-Transmitter” value was determined as 1; the “% Bound, Transmitter” value turned out to be 20%; the “No. of Sera Samples Bound, Transmitter” value was 1.

For the substance “MN-12: gp41 peptide, amino acids 830-842, HIV strain MN, SEQ ID NO: 197”, in test [1], the “% Bound, Non-Transmitter” value is reported as 0%; the “No. of Sera Samples Bound, Non-Transmitter” value turned out to be 0; the “% Bound, Transmitter” value was 0%; the “No. of Sera Samples Bound, Transmitter” value is on record as 0.

Consider “MN-13: gp41 peptide, amino acids 619-637, HIV strain MN, SEQ ID NO: 166”, for which, in test [1], the “% Bound, Non-Transmitter” value came out at 60%; the “No. of Sera Samples Bound, Non-Transmitter” value is 3; the “% Bound, Transmitter” value turned out to be 0%; the “No. of Sera Samples Bound, Transmitter” value was determined as 0.

As for “MN-16: gp41 peptide, amino acids 638-650, HIV strain MN, SEQ ID NO: 167”, in test [1], the “% Bound, Non-Transmitter” value is reported as 0%; the “No. of Sera Samples Bound, Non-Transmitter” value amounted to 0; the “% Bound, Transmitter” value is 0%; the “No. of Sera Samples Bound, Transmitter” value turned out to be 0.

“MN-19: gp41 peptide, amino acids 531-540, HIV strain MN, SEQ ID NO: 169 (MGAASVTLTV)”: in test [1], the “% Bound, Non-Transmitter” value was 20%; the “No. of Sera Samples Bound, Non-Transmitter” value came to 1; the “% Bound, Transmitter” value came out at 20%; the “No. of Sera Samples Bound, Transmitter” value is 1.

Regarding YIKIFIMIVGGLVG [MN-17], in test [1], the “Correlation of peptide binding with non-transmission (in words)” value is “selectively correlate with non-transmission”; the “% Bound, Non-Transmitter” value worked out at 40%; the “No. of Sera Samples Bound, Non-Transmitter” value is 2; the “% Bound, Transmitter” value worked out at 0%. Further, the “No. of Sera Samples Bound, Transmitter” value in test [1] is reported as 0.
